Literature values as cited in patent US11931686B1, “Carbon capture process utilizing inert gas medium to assist thermal desorption” (CARBON CAPTURE INC., priority 2022, dated 2024).

tested on: Rat; conditions: Rat; Table 1, inert chemical fluids

| Compound | LD50 (Rat) |
| --- | --- |
| Cc1ccccc1C [o-Xylene, o-xylene] | 3,600 mg/kg |

same assay, conditions: Rat; Table 3, alcohols

| Compound | LD50 (Rat) |
| --- | --- |
| CC(C)CCO [i-Amyl Alcohol] | 1,300 mg/kg |

same assay, conditions: Rat; Table 4, hydrocarbons

| Compound | LD50 (Rat) |
| --- | --- |
| CCCCCCCC [Octane] | >5,000 mg/kg |
| c1ccc2c(c1)CCCC2 [Tetralin] | 2,860 mg/kg |

same assay, conditions: rat, in vivo

| Compound | LD50 (Rat) |
| --- | --- |
| CCCCC(CC)CO (centres unmarked) [2-Ethylhexanol] | 3,730 mg/kg |
| CC(C)O [2-Propanol] | 3,600 mg/kg |
| Cc1ccc(C(C)C)cc1 [p-Cymene] | 4,750 mg/kg |
| Cc1cccc(C)c1 [m-Xylene, m-xylene] | 5,000 mg/kg |
| CCCCCCCCCCC [Undecane, undecane] | 2,000 mg/kg |
| C[Si](C)(C)O[Si](C)(C)O[Si](C)(C)O[Si](C)(C)C [MD2M, decamethyltetrasiloxane] | >2,000 mg/kg |
| CCCCO [1-Butanol] | 790 mg/kg |
| Clc1ccccc1 [Chlorobenzene] | >2,000 mg/kg |
| CCO [Ethanol] | 7,340 mg/kg |
| CCOC(=O)c1ccccc1 [Ethyl Benzoate, ethyl benzoate] | 2,100 mg/kg |
| CO [Methanol] | 5,628 mg/kg |
| CCCCCCC [Heptane] | >5,000 mg/kg |
| CC(C)CO [i-Butanol] | 2,460 mg/kg |
| CCC(CC)CO [2-Ethylbutanol] | 1,850 mg/kg |
| CCCO [1-Propanol] | 1,870 mg/kg |
| CCC(C)O (centres unmarked) [2-Butanol] | 2,193 mg/kg |

tested on: not given; conditions: Table 1

| Compound | Solubility in Water |
| --- | --- |
| C[Si](C)(C)O[Si](C)(C)O[Si](C)(C)O[Si](C)(C)C [MD2M, decamethyltetrasiloxane] | insoluble |
| CCOC(=O)c1ccccc1 [Ethyl Benzoate, ethyl benzoate] | 0.07 g/100 g |
| Cc1ccccc1C [o-Xylene, o-xylene] | 0.02 g/100 g |
